Experimental data as given in US11433055B2, “Chromane monobactam compounds for the treatment of bacterial infections” (priority 2017, dated 2022).
Counter-ions that a name gives are not always drawn.

Legend:
Assay type in all cases: cell-based
Settings in all cases: lowest concentration inhibiting 95% of bacterial growth; in the presence of β lactamase inhibitor (BLi, Relebactam); 22 hours, 35±2° C., OD600
[1] = test system: Escherichia coli expressing NDM-1 (CLB30016)
Description: (§1) Antibiotic Activity: Determination of Growth Inhibitory Concentration
(§2) The concentrations of compounds required to inhibit the growth of various strains of bacteria were determined in an assay that assessed bacterial growth by measuring optical density at 600 nm (OD600). The bacterial strains tested included the clinical strains Escherichia coli expressing NDM-1 (CLB30016), Klebsiella pneumoniae expressing KPC-1 (CL6569), Acinetobacter baumannii expressing TEM-1, AmpC, and Oxa-24/40 (CL6188) and Pseudomonas aeruginosa expressing AmpC (CL5701). All compounds were tested in the presence of a β lactamase inhibitor (BLi, Relebactam) in 384-well microplates. The clinical strains were stored as frozen single use stocks, thawed and diluted into 1.1× cation-adjusted Mueller-Hinton II broth to achieve approximately 2×10^5 CFU/mL. Test compounds were dissolved in DMSO and diluted 1:50 in the assay, resulting in a final concentration range of 100 μM to 0.098 μM. On the day of the assay, 1 μL of test compound was added to the plate followed by 4 μL of 50 μg/mL BLi in MOPS buffer and 45 μL of diluted bacteria. Plates were centrifuged at 1000 rpm for 30 seconds, shaken at approximately 800 rpm for 1 minute, and incubated at 35±2° C. for 22 hours. The concentration of BLi used in the assay was […]. At the end of the incubation, absorbance at 600 nm was determined using a spectrophotometer. Inhibition was quantitated by identifying the lowest concentration of test compound that was required to inhibit 95% of the growth of the bacteria. The results for Examples 1-39 are reported in Table I, expressed as the concentration of compound that inhibited 95% of bacterial growth (Minimum Inhibitory Threshold Concentration; MITC95).

[2] = test system: Klebsiella pneumoniae expressing KPC-1 (CL6569)
Description: as §1, §2

[3] = test system: Acinetobacter baumannii expressing TEM-1, AmpC, and Oxa-24/40 (CL6188)
Description: as §1, §2

[4] = test system: Pseudomonas aeruginosa expressing AmpC (CL5701)
Description: as §1, §2

Row | Structure (SMILES) | EC_CLB30016 MITC95 [1] | KP_CL6569 MITC95 [2] | AB_CL6188 MITC95 [3] | PA_CL5701 MITC95 [4]
1 | CC1(C)[C@H](NC(=O)/C(=N\O[C@](C)(C(=O)O)[C@H]2CCc3cc(C4CN=C(NCCN)NC4)ccc3O2)c2csc(N)n2)C(=O)N1OS(=O)(=O)O.O=CO (stereo partly drawn) [Example 30, 2-((2-aminoethyl)amino)-5-((R)-2-((S)-1-((((Z)-1-(2-aminothiazol-4-yl)-2-(((S)-2,2-dimethyl-4-oxo-1-(sulfooxy)azetidin-3-yl)amino)-2-oxoethylidene)amino)oxy)-1-carboxyethyl)chroman-6-yl)-3,4,5,6-tetrahydropyrimidin-1-ium formate] | 25 µM | 3.125 µM | 25 µM | 6.25 µM
2 | C[n+]1cc(-c2ccc3c(c2)CC[C@H]([C@](C)(O/N=C(\C(=O)N[C@@H]2C(=O)N(OS(=O)(=O)[O-])C2(C)C)c2csc(N)n2)C(=O)O)O3)cn1CC1(N)CNC1 [Example 6, (S)-3-((Z)-2-(((S)-1-((R)-6-(1-((3-Aminoazetidin-3-yl)methyl)-2-methyl-1H-pyrazol-2-ium-4-yl)chroman-2-yl)-1-carboxyethoxy)imino)-2-(2-aminothiazol-4-yl)acetamido)-2,2-dimethyl-4-oxoazetidin-1-yl Sulfate] | 100 µM | 12.5 µM | 100 µM | 100 µM
3 | CC1(C)[C@H](NC(=O)/C(=N\O[C@](C)(C(=O)O)[C@H]2CCc3cc(-c4cnc(NCCCN)nc4)ccc3O2)c2csc(N)n2)C(=O)N1OS(=O)(=O)O [Example 33, 3-((5-((R)-2-((S)-1-((((Z)-1-(2-aminothiazol-4-yl)-2-(((S)-2,2-dimethyl-4-oxo-1-(sulfooxy)azetidin-3-yl)amino)-2-oxoethylidene)amino)oxy)-1-carboxyethyl)chroman-6-yl)pyrimidin-2-yl)amino)propan-1-aminium Formate] | 6.25 µM | 0.3906 µM | 3.125 µM | 6.25 µM
4 | C[n+]1cc(-c2ccc3c(c2)OCC(CO/N=C(\C(=O)N[C@@H]2C(=O)N(OS(=O)(=O)[O-])C2(C)C)c2csc(N)n2)C3)ccc1NCCN.O=C(O)C(F)(F)F (stereo partly drawn) [Example 38, mono((S)-3-((Z)-2-(2-aminothiazol-3-ium-4-yl)-2-((((S)-7-(6-((2-ammonioethyl)amino)-1-methylpyridin-1-ium-3-yl)chroman-3-yl)methoxy)imino)acetamido)-2,2-dimethyl-4-oxoazetidin-1-yl sulfate) mono(2,2,2-trifluoroacetate)] | 6.25 µM | 0.3906 µM | 6.25 µM | 6.25 µM
5 | CC1(C)[C@H](NC(=O)/C(=N\O[C@](C)(C(=O)O)[C@H]2CCc3cc(C4CN=C(NCCCN)NC4)ccc3O2)c2csc(N)n2)C(=O)N1OS(=O)(=O)O (stereo partly drawn) [Example 27, (2S)-2-((2R)-6-(2-((3-aminopropyl)amino)-1,4,5,6-tetrahydropyrimidin-5-yl)chroman-2-yl)-2-(((Z)-(1-(2-aminothiazol-4-yl)-2-(((S)-22-dimethyl-4-oxo-1-(sulfooxy)azetidin-3-yl)amino)-2-oxoethylidene)amino)oxy)propanoic Acid] | 12.5 µM | 0.7813 µM | 12.5 µM | 6.25 µM
6 | CC1(C)[C@H](NC(=O)/C(=N\O[C@](C)(C(=O)O)[C@H]2CCc3cc(-c4cnc(NC[C@@H](O)CN)[n+](CC5CNC5)c4)ccc3O2)c2csc(N)n2)C(=O)N1OS(=O)(=O)[O-].O=CO [Example 20, (S)-3-((Z)-2-(((S)-1-((R)-6-(2-(((S)-3-amino-2-hydroxy-propyl)amino)-1-(azetidin-1-ium-3-ylmethyl)pyrimidin-1-ium-5-yl)chroman-2-yl)-1-carboxyethoxy)imino)-2-(2-aminothiazol-4-yl)acetamido)-2,2-dimethyl-4-oxoazetidin-1-yl sulfate formate] | 6.25 µM | 0.3906 µM | 6.25 µM | 6.25 µM
7 | CC1(C)[C@H](NC(=O)/C(=N\O[C@](C)(C(=O)O)[C@H]2CCc3cc(C4CN=C(NC[C@@H](O)CN)NC4)ccc3O2)c2csc(N)n2)C(=O)N1OS(=O)(=O)O.O=CO (stereo partly drawn) [Example 29, 2-(((S)-3-amino-2-hydroxypropyl)amino)-5-((R)-2-((S)-1-((((Z)-1-(2-aminothiazol-4-yl)-2-(((S)-2,2-dimethyl-4-oxo-1-(sulfooxy)azetidin-3-yl)amino)-2-oxoethylidene)amino)oxy)-1-carboxyethyl)chroman-6-yl)-3,4,5,6-tetrahydropyrimidin-1-ium formate] | 25 µM | 1.563 µM | 3.125 µM | 6.25 µM
8 | CC1(C)[C@H](NC(=O)/C(=N\O[C@](C)(C(=O)O)[C@H]2CCc3cc(-c4cn(C[C@@H](O)CN)[n+](C[C@@H]5CCNC5)c4)ccc3O2)c2csc(N)n2)C(=O)N1OS(=O)(=O)O.O=C([O-])C(F)(F)F [Example 40, Mono((S)-3-((Z)-2-(((S)-1-((R)-6-(1-((S)-3-amino-2-hydroxypropyl)-2-((R)-pyrrolidin-3-ylmethyl)-1H-pyrazol-2-ium-4-yl)chroman-2-yl)-1-carboxyethoxy)imino)-2-(2-aminothiazol-4-yl)acetamido)-2,2-dimethyl-4-oxoazetidin-1-yl sulfate) mono (2,2,2-trifluoroacetate)] | >50 µM | 0.1 µM | 1.56 µM | 0.78 µM
9 | C[n+]1cc(-c2ccc3c(c2)CC[C@H]([C@](C)(O/N=C(\C(=O)N[C@@H]2C(=O)N(OS(=O)(=O)[O-])C2(C)C)c2csc(N)n2)C(=O)O)O3)cnc1NC[C@@H](O)CN.O=CO [Example 18, (S)-3-((Z)-2-(2-aminothiazol-4-yl)-2-(((S)-1-((R)-6-(2-(((S)-3-ammonio-2-hydroxy-propyl)amino)-1-methylpyrimidin-1-ium-5-yl)chroman-2-yl)-1-carboxy-ethoxy)imino)acetamido)-2,2-dimethyl-4-oxoazetidin-1-yl sulfate formate] | 6.25 µM | 0.3906 µM | 3.125 µM | 6.25 µM
10 | CC1(C)[C@H](NC(=O)/C(=N\OCC2CCc3cc(C(=N)NCCN)ccc3O2)c2csc(N)n2)C(=O)N1OS(=O)(=O)O (stereo partly drawn) [Example 13, (3S)-3-((Z)-2-(((6-(N-(2-aminoethyl)carbamimidoyl)chroman-2-yl)methoxy)imino)-2-(2-aminothiazol-4-yl)acetamido)-2,2-dimethyl-4-oxoazetidin-1-yl hydrogen sulfate] | 12.5 µM | 0.7813 µM | 25 µM | 12.5 µM
11 | CC1(C)[C@H](NC(=O)/C(=N\O[C@](C)(C(=O)O)[C@H]2CCc3cc(C4CN=C(NC(CN)CN)NC4)ccc3O2)c2csc(N)n2)C(=O)N1OS(=O)(=O)O.O=CO (stereo partly drawn) [Example 31, 5-((R)-2-((S)-1-((((Z)-1-(2-aminothiazol-4-yl)-2-(((S)-2,2-dimethyl-4-oxo-1-(sulfooxy)azetidin-3-yl)amino)-2-oxoethylidene)amino)oxy)-1-carboxyethyl)chroman-6-yl)-2-((1,3-diaminopropan-2-yl)amino)-3,4,5,6-tetrahydropyrimidin-1-ium formate] | 6.25 µM | 0.3906 µM | 3.125 µM | 3.125 µM
12 | CC1(C)[C@H](NC(=O)/C(=N\O[C@](C)(C(=O)O)[C@H]2CCc3cc(C4CNC(NCCN)=N4)ccc3O2)c2csc(N)n2)C(=O)N1OS(=O)(=O)O (single isomer, unassigned) [Example 26] | 100 µM | 1.563 µM | 12.5 µM | 50 µM
13 | C[n+]1cc(-c2ccc3c(c2)CC[C@H]([C@](C)(O/N=C(\C(=O)N[C@@H]2C(=O)N(OS(=O)(=O)[O-])C2(C)C)c2csc(N)n2)C(=O)O)O3)cnc1NC(CN)CN.O=CO [Example 24, (3S)-3-((Z)-2-(((1S)-1-((2R)-6-(2-((1-amino-3-ammonio-propan-2-yl)amino)-1-methyl-pyrimidin-1-ium-5-yl)chroman-2-yl)-1-carboxyethoxy)imino)-2-(2-aminothiazol-4-yl)acetamido)-2,2-dimethyl-4-oxoazetidin-1-yl sulfate formate] | 3.125 µM | 0.3906 µM | 1.563 µM | 3.125 µM
